{"source": "paper PMC3454463", "about": "(2012)", "assay_type_in_all_cases": "binding", "key": {"[1]": {"biological_target": "T1, MD2 (myeloid differentiation protein 2) (Homo sapiens, UniProt Q9Y6Y9)", "T1 sequence (Q9Y6Y9 19-160)": "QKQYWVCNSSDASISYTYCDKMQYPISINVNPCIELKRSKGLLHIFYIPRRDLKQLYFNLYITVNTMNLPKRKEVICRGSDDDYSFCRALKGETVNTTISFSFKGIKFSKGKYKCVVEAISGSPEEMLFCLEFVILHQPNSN", "test": "quenching of MD2 intrinsic fluorescence"}, "[2]": {"biological_target": "T1, MD2 (myeloid differentiation protein 2)", "test": "quenching of MD2 intrinsic fluorescence", "remark": "listed apart in the source"}, "[3]": {"biological_target": "T1, MD2 (myeloid differentiation protein 2)", "test": "Bis-ANS-MD2 complex fluorescence, displaced by"}}, "note": "Read-outs that look alike come from different tables or passages of the source.", "data": [{"smiles": "C=CCN1CC[C@@]23c4c5ccc(O)c4O[C@@H]2C(=O)CC[C@]3(O)[C@@H]1C5", "note": "[(+)-naloxone]", "values": [{"measurement": "Kd", "setting": "[1]", "result": "16.6 ± 4.7", "unit": "µM"}]}, {"smiles": "C=CCN1CC[C@]23c4c5ccc(O)c4O[C@H]2C(=O)CC[C@@]3(O)[C@H]1C5", "note": "[(−)-naloxone]", "values": [{"measurement": "Kd", "setting": "[2]", "result": "17.7 ± 3.2", "unit": "µM"}]}, {"smiles": "O=S(=O)(O)c1cccc2c(-c3ccc(Nc4ccccc4)c4c(S(=O)(=O)O)cccc34)ccc(Nc3ccccc3)c12", "note": "[Bis-ANS]", "values": [{"measurement": "Bis-ANS-MD2 complex fluorescence, displaced by (+)-naloxone", "setting": "[3]", "result": "(+)-Naloxone decreased Bis-ANS-MD2 complex fluorescence, suggesting that (+)-naloxone replaces Bis-ANS binding to MD2"}]}]}
